Assay results: patent publication US20140322161A1, “ANTI-IL-6 VACCINE COMPOSITION” (PEPTINOV SAS, priority 2011, published 2014)
Bridges are numbered along the chain shown (N, C = ends). BDB = bisdiazonium-benzidine, coupling agent to KLH; Gluta = glutaraldehyde, coupling agent to KLH

What was measured:
C57BL/6 mice = assay: Murine model of chronic colitis induced by DSS after vaccination; format: in vivo; conditions: for histological colitis score: D67 colon distal biopsies, compared with control mice treated with PBS or KLH alone, FIG. 3; for disease activity index (DAI) / reduction of the length of the colon: DSS-treated C57BL/6 mice; for disease activity index (DAI): 100 μg peptide coupled with KLH, compared with the control groups, FIG. 2; for reduction of the length of the colon: compared with control mice, FIG. 4
Description: Chronic colitis induced by Dextran Sodium Sulfate (DSS) is a well-known model of chronic inflammatory disease reproducing the main characteristics of the human diseases (Alex et al. (2009) Inflamm. Bowel Dis. 15:341-352).
Briefly, groups of 6 C57BL/6 mice (Charles River Laboratories, L'Arbresle, France) were formed. The mice were immunized 4 times (once with CFA and three times with IFA) every 15 days with different vaccine preparations. The mice were respectively immunized with PBS (DSS/PBS group), 50 μg per mouse of KLH (DSS/KLH group), and 100 μg per mouse of peptide mP1, mP2, mP3, mP4, mP5 and mP6 coupled with KLH (DSS/mIL-6 peptide group). A control H2O group was also included. Four days after the first booster, colitis was induced by absorption of Dextran Sodium Sulfate (DSS) in water (2%) over 7 days followed by 7 days of water. Three DSS/water cycles were thus carried out, after which the mice received water until the end of the protocol. The clinical signs of the disease appear approximately on the fifth day after the start of treatment with DSS (D26 of the protocol). The development of the disease is measured from the start of the first DSS cycle up to the end of the protocol by a disease activity index (DAI) including weight loss, the presence of blood in the stools and the texture of the stools. The clinical scores are determined as follows: for the texture of the stools a score of 0 (hard stools) to 4 (diarrhoea), for the presence of blood in the stools a score of 0 (absence) to 4 (macroscopic blood), and weight loss a score of 0 (<1%) to 4 (>20%). Each mouse is thus assigned a clinical score with a maximum score of 12.
Then, on D67, the mice are killed by cervical dislocation. The histological sections from colon distal biopsies are scored blind, according to the severity of the inflammation (0: absence, 1: slight, 2: moderate, 3: severe), the extent of the inflammation (0: absence, 1: mucosal, 2: mucosal and sub-mucosal, 3: transmural), crypt damage (0: absence, 1: one-third damaged, 2: ⅔ damaged, 3: only the surface of the epithelium intact, 4: total destruction of the crypts and epithelium). Each mouse is thus assigned a histological score with a maximum score of 10.

murine IL-6 = molecular target: T1, murine IL-6 (Mus musculus, UniProt P08505); assay: Murine IL-6 neutralization test on murine B9 hybridomas with purified IgGs from immunized rabbits; format: cell-based; conditions: purified IgGs from rabbits immunized with the peptide; B9 hybridoma proliferation, XTT
T1 sequence (P08505 25-211): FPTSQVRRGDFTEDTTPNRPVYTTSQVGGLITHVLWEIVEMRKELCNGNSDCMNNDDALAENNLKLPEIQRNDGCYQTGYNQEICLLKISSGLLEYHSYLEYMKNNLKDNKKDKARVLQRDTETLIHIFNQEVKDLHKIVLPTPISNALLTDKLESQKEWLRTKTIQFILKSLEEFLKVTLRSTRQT
Method: The neutralizing ability of purified IgGs based on serum from rabbits immunized with the peptides mP1, mP2, mP3, mP4, mP5 and mP6 respectively, was tested in a murine IL-6 neutralization test. This test is based on the fact that murine B9 hybridomas proliferate in a dose-dependent manner in response to murine IL-6 (Brakenhoff et al. (1987) J. Immunol. 139:4116-21).
Plating (D0): seed a flat-bottom 96-well plate, treated for cell culture with 5000 cells per well in 50 μL of neutralization medium. (RPMI 1640 without phenol red, 5% v/v Foetal Calf Serum (FCS), 2 mM L-Glutamine, 100 U/mL Penicillin/Streptomycin, […] of β-Mercaptoethanol)
In parallel a so-called “pre-incubation” plate is produced with the desired concentration of murine IL-6, samples and commercial anti-mIL-6 antibodies used as positive control, all in a final volume of 100 μL of neutralization medium.
The pre-incubation plate is left at 37° C. for 2 hours. 50 μL per well is then transferred to the corresponding wells of the plate containing the cells, then the latter is incubated with 5% CO2 at 37° C. for 96 hours.
Development (D4): Add 50 μL of a solution of XTT (for 2,3-bis-(2-methoxy-4-nitro-5-sulfophenyl)-2H-tetrazolium-5-carboxanilide)—0.5% electron coupling reagent to each well. Leave to incubate at 37° C. for 7 hours. Reading of the optical density on a spectrophotometer set at 450 nm.

hIL-6 = hIL-6 (Homo sapiens, UniProt P05231); assay: Human IL-6 neutralization test on HEK293 cells (hIL-6 receptor, SEAP reporter) with purified IgGs from immunized rabbits; format: cell-based; conditions: purified IgGs from rabbits immunized with 100 μg of the peptide
Sequence of hIL-6 (P05231 30-212): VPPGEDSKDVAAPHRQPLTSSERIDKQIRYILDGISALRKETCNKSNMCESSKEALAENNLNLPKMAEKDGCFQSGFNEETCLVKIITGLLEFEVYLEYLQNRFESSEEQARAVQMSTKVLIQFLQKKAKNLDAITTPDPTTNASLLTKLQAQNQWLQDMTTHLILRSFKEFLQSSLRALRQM
Method: New Zealand rabbits free from specific pathogenic organisms (n=1 per peptide) were immunized with 100 μg of peptides hP1, hP2, hP3, hP4 and hP6 derived from human IL-6 by five immunizations with CFA/IFA on D0, D14, D28, D56 and J70. The neutralizing ability of the purified IgGs, derived from the serum of each rabbit, was tested in a human IL-6 neutralization test. This test is carried out on HEK293 cells (Human Embryonic Kidney cells) transfected with the gene encoding the human IL-6 receptor and the secreted embryonic alkaline phosphatase (SEAP) reporter gene (Supplier: Invivogen). The latter is then secreted in a dose-dependent manner in response to the human IL-6.
Plating (D0): seed a flat-bottom 96-well plate, treated for cell culture with 50,000 cells per well in 100 μL of neutralization medium. (DMEM 4.5 g/L glucose, 10% v/v FCS, 2 mM L-Glutamine, 100 U/mL Penicillin/Streptomycin, 100 μg/mL of Normocin).
In parallel a so-called “pre-incubation” plate is prepared with the desired concentration of human IL-6, rabbit antibodies and commercial anti-hIL-6 antibodies used as a positive control, all in a final volume of 200 μL of neutralization medium.
The pre-incubation plate is left at 37° C. for 2 hours. 100 μL per well is then transferred to the corresponding wells of the plate containing the cells, then the latter is incubated with 5% CO2 at 37° C. for 24 hours.
Development (D1): Fill a flat-bottom 96-well plate with 180 μL per well of QUANTI-Blue (InVivoGen, CA, USA). Add 20 μL of supernatant from the plate treated with IL-6. Incubate with 5% CO2 at 37° C. for 3 hours. Determine the quantity of secreted alkaline phosphatase using a spectrophotometer set at 620 nm.

IL-6Rα receptor = molecular target: T2, IL-6Rα receptor (Homo sapiens, UniProt P08887); conditions: adults; cited from earlier work
T2 sequence (P08887 20-468): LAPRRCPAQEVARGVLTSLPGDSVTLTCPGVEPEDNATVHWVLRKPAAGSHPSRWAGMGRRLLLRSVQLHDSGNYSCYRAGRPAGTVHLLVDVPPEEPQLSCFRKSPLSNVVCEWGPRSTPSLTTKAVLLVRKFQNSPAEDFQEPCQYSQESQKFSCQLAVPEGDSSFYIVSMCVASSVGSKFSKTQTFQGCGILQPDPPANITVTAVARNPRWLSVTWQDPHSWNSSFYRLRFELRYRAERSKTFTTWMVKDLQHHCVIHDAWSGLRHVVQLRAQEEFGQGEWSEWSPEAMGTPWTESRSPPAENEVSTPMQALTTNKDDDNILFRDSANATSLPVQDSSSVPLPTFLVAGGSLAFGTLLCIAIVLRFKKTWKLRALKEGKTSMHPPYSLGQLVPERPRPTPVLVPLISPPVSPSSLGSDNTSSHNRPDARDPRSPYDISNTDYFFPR

Row | Substance | histological colitis score (C57BL/6 mice) | disease activity index (DAI) (C57BL/6 mice) | reduction of the length of the colon (C57BL/6 mice) | neutralization of the biological activity of murine IL-6 (murine IL-6) | neutralization of the biological activity of human IL-6 (hIL-6) | clinical effectiveness in rheumatoid arthritis (IL-6Rα receptor)
1 | BDB-Y-E61IVEMRKELCNGNSD75C+Amide ({BDB}-YEIVEMRKELCNGNSDC-NH2; disulfide 11-17 (inferred)) [mP1, peptide derived from mIL-6 region 61-75] | significantly reduced histological score | significantly reduced disease activity index | significantly less severe reduction of the colon | neutralize the biological activity of murine IL-6 in a dose-dependent manner |  | 
2 | Acetyl +T177KCQAQNQWLQDM189C-Y-BDB (Ac-TKCQAQNQWLQDMCY-{BDB}; disulfide 3-14 (inferred)) [hP6, peptide derived from hIL-6 region 177-189] |  |  |  |  | neutralize the biological activity of the human IL-6 in a dose-dependent manner | 
3 | BDB-Y-CE127FLQNRFESSEEQAR141C+ Amide ({BDB}-YCEFLQNRFESSEEQARC-NH2; disulfide 2-18 (inferred)) [hP4, peptide derived from hIL-6 region 127-141] |  |  |  |  | neutralize the biological activity of the human IL-6 in a dose-dependent manner | 
4 | Acetyl+CN154QEVKDLHKIVLPTP168C-Y-BDB [mP5] |  |  |  | do not neutralize the activity of murine IL-6 |  | 
5 | BDB-Y-CE125FMKNNLKDNKKDKAR140C+Amide [mP4] | significantly reduced histological score | significantly reduced disease activity index | significantly less severe reduction of the colon | neutralize the biological activity of murine IL-6 in a dose-dependent manner |  | 
6 | Gluta-C99YQTGYNQEIC109+Amide (Gluta-CYQTGYNQEIC-NH2; disulfide 1-11 (inferred)) [mP3, peptide derived from mIL-6 region 99-109] | significantly reduced histological score | significantly reduced disease activity index | significantly less severe reduction of the colon | neutralize the biological activity of murine IL-6 in a dose-dependent manner |  | 
7 | Gluta-C101FQSGFNEETC111 +Amide (Gluta-CFQSGFNEETC-NH2; disulfide 1-11 (inferred)) [hP3, peptide derived from hIL-6 region 101-111] |  |  |  |  | neutralize the biological activity of the human IL-6 in a dose-dependent manner | 
8 | BDB-Y-G63ISALRKETCNKSNMC78+Amide ({BDB}-YGISALRKETCNKSNMC-NH2; disulfide 11-17 (inferred)) [hP1, peptide derived from hIL-6 region 63-78] |  |  |  |  | neutralize the biological activity of the human IL-6 in a dose-dependent manner | 
9 | Acetyl+D176KCESQKEWLRTK188C-Y-BDB [mP6] | significantly reduced histological score | significantly reduced disease activity index | significantly less severe reduction of the colon | neutralize the biological activity of murine IL-6 in a dose-dependent manner |  | 
10 | Tocilizumab: humanized monoclonal antibody directed against the IL-6Rα receptor |  |  |  |  |  | clinically effective
